# In US9278925B2, “Substituted 3-(biphenyl-3-yl)-4-hydroxy-8-methoxy-1-azaspiro[4.5]dec-3-en-2-one” (BAYER INTELLECTUAL PROPERTY GMBH, priority 2011, dated 2016):
# Values joined by “and” are separate entries in the source; they are usually repeats but may differ in a detail not shown here. Equal values may be shown once. Read-outs that look alike come from different tables or passages of the source.
# Columns and labels:
# [1] = reference substances with known distribution coefficients; cited from earlier work
# [2] = Membrane affinity logMA (MA-Transil); type: physicochemical; details: buffer pH 7.4
# Method: Assays for Determining Membrane Affinity logMA and Protein Binding to Human Serum Albumin (HSA):
# Determination of membrane affinity and protein binding to human serum albumin (HSA) was carried out via Transil technology (literature: A. Loidl-Stahlhofen, A. Eckert, T. Hartmann, M. Schöttner J Pharm Sci 90, 599-606 (2001)). Transil® (commercially available from Sovicell in Leipzig, Germany) are glass beads (diameter 10-12 μm) coated with a double-layer membrane of phosphatidylcholine (MA-Transil) or covalently attached human serum albumin (HSA-Transil).
# To determine the logMA and the protein binding constant to HSA, the commercially available TRANSIL Intestinal Absorption & HSA Binding Combined Assay Kit was used. This is a 96-well microtitre plate (96 well-MTP) which is filled with Transil and can be used to determine MA-Transil and HSA-Transil binding of in each case eight active compounds. For each active compound, the Transil plate provides a row of 12 wells. Two wells serve as reference and are only filled with buffer pH 7.4. Five further wells contain MA-Transil in various increasing concentrations, the five remaining wells contain HSA-Transil in various increasing concentrations.
# To determine binding of an active compound to Transil, the supernatant of the wells with Transil was quantified against the reference solution without Transil via HPLC-MS coupling (HPLC-MS=high performance liquid chromatography/mass spectrometry).
# This is how the individual steps of the assay were carried out:
# From the internal substance store, the active compounds were delivered in a 96-well MTP. This plate is referred to as mother plate. Each well contained 30 μl of a 10 mmol solution of active compound in DMSO (dimethyl sulphoxide). Two wells at the start (well A1) and at the end of the plate (well H12) were filled with 30 μl of a 10 mmol solution of warfarin in DMSO. Warfarin, whose membrane affinity and binding to HSA is known, serves to check whether the measurement is correct. The mother plate was used to prepare a daughter plate with a 1 to 4000 dilution with a mixture of buffer pH 7.4 and DMSO in a ratio of 1+1. The active compound concentration of each well was 2.5 μmol/liter, the volume of each well was 400 μl.
# Using a Hamilton pipetting robot Microlab STAR, the 96 active compounds from the daughter plate were divided onto 12 Transil plates in total. From each well of the daughter plate, 12 times 20 μl were removed. The concentration of each well of the Transil plate was 0.25 μmol/liter, which corresponds to a dilution of 1 to 10. The DMSO content was 5%.
# The filled Transil plates were each resuspended for two minutes, then allowed to stand at room temperature for at least two minutes and then centrifuged at 600 rotations per minute for five minutes. The pipetting robot was then used to remove 20 μl of supernatant from each well of the Transil plate and to transfer these to a separate microtitre plate. Here, the supernatants of in each case four Transil plates were pooled in a microtitre plate, so that at the end there were three pooled microtitre plates with in each case 80 μl of solution and an active compound concentration of 62.5 nM per well.
# Prior to quantification of the active compounds by HPLC-MS, an optimization has to be carried out for each active compound where by way of a single injection daughter ion and optimum electrical voltages are determined. To this end, the pipetting robot prepared a dilution of the mother plate of 1 to 10 000 000 in an acetonitrile/water mixture in a ratio of 8+2 in a separate microtitre plate. This microtitre plate was measured by HPLC-MS using the software Discovery Quant Optimize from AB Sciex. The three pooled microtitre plates were measured by HPLC-MS using the software Discovery Quant Analyze from AB Sciex. […]
# human ACC1 [3] = test: Human ACC1 enzyme assay (ADP-Glo); type: biochemical; details: for Ratio IC50s ACC2/ACC1 (respective measurement): pairwise, same dilution series
# Method: (§1) Typical concentrations were in the range of 1.75 μl.
# human ACC1 [4] = molecular target: human ACC1 (Homo sapiens, UniProt Q13085); test: Human ACC1 enzyme assay (ADP-Glo); type: biochemical; details: individual measurement (measurement no./preparation no. in table); read-out: ACC 1 IC50
# Method: as §1
# [5] = Plasma protein binding by equilibrium dialysis; type: in vitro ADME
# Method: The binding of test substances to plasma proteins is determined by equilibrium dialysis by means of the Ht-dialysis apparatus (96-well) made of Teflon and a semipermeable membrane (regenerated cellulose, MWCO 12-14K). This separates 150 μl each of a plasma side and a buffer side (50 mM phosphate buffer). The test substance is added in 2 concentrations (usually 3 and 0.3 μM) to the plasma side and binds to plasma proteins. The unbound fraction of the test substance passes through the membrane and is distributed on either side until equilibrium is established (after approx. 6-8 h at 37° C.). The substance concentration on the buffer side and the plasma side is determined by LC-MS analysis. For this, both sides are brought by dilution with buffer or plasma to the same matrix (10% plasma) and then precipitated with methanol. The free (unbound) fraction (fu) is calculated from the quotient of the buffer and plasma concentration. Stability tests and recovery tests are run concurrently as controls. In addition, the substance in buffer is dialysed against buffer, to check the nonspecific binding to apparatus and membrane and establishment of equilibrium. Because during incubation the osmotic pressure of the plasma proteins leads to dilution of the plasma (volume shift), this possible error is determined by weighing blank plasma samples and is included in the calculation of fu. Establishment of equilibrium and plasma stability should have a value not lower than 80% and the recovery should be at least 30%. A free fraction of <1% is regarded as high, between 1 and 10% as moderate and >10% as low plasma protein binding.
# [6] = molecular target: human serum albumin (HSA) (Homo sapiens (Human), UniProt P02768); test: Protein binding to human serum albumin (HSA-Transil); details: buffer pH 7.4
# Method: Assays for Determining Membrane Affinity logMA and Protein Binding to Human Serum Albumin (HSA): Determination of membrane affinity and protein binding to human serum albumin (HSA) was carried out via Transil technology (literature: A. Loidl-Stahlhofen, A. Eckert, T. Hartmann, M. […] Pharm Sci 90, 599-606 (2001)). Transil® (commercially available from Sovicell in Leipzig, Germany) are glass beads (diameter 10-12 μm) coated with a double-layer membrane of phosphatidylcholine (MA-Transil) or covalently attached human serum albumin (HSA-Transil). To determine the logMA and the protein binding constant to HSA, the commercially available TRANSIL Intestinal Absorption & HSA Binding Combined Assay Kit was used. This is a 96-well microtitre plate (96 well-MTP) which is filled with Transil and can be used to determine MA-Transil and HSA-Transil binding of in each case eight active compounds. […] Two wells serve as reference and are only filled with buffer pH 7.4. Five further wells contain MA-Transil in various increasing concentrations, the five remaining wells contain HSA-Transil in various increasing concentrations. To determine binding of an active compound to Transil, the supernatant of the wells with Transil was quantified against the reference solution without Transil via HPLC-MS coupling (HPLC-MS=high performance liquid chromatography/mass spectrometry). This is how the individual steps of the assay were carried out: From the internal substance store, the active compounds were delivered in a 96-well MTP. This plate is referred to as mother plate. […] Warfarin, whose membrane affinity and binding to HSA is known, serves to check whether the measurement is correct. […] Using a Hamilton pipetting robot Microlab STAR, the 96 active compounds from the daughter plate were divided onto 12 Transil plates in total. From each well of the daughter plate, 12 times 20 μl were removed. The concentration of each well of the Transil plate was 0.25 μmol/liter, which corresponds to a dilution of 1 to 10. […] The filled Transil plates were each resuspended for two minutes, then allowed to stand at room temperature for at least two minutes and then centrifuged at 600 rotations per minute for five minutes. The pipetting robot was then used to remove 20 μl of supernatant from each well of the Transil plate and to transfer these to a separate microtitre plate. […] Prior to quantification of the active compounds by HPLC-MS, an optimization has to be carried out for each active compound where by way of a single injection daughter ion and optimum electrical voltages are determined. […] This microtitre plate was measured by HPLC-MS using the software Discovery Quant Optimize from AB Sciex. The three pooled microtitre plates were measured by HPLC-MS using the software Discovery Quant Analyze from AB Sciex. • Sciex Triple Quad 5500 mass spectrometer (from AB Sciex) • PAL Autosampler DLW Option Software: Analyst 1.4 (from AB Sciex) • Discovery Quant Optimize (from AB Sciex) • Discovery Quant Analyze (from AB Sciex) Optimization: […] Column: Poroshell 120 SB-C18 2.7 μm 3×30 mm Injection volume: 2 μl Flow rate: 1 ml/min: […] Evaluation of the HPLC peaks was carried out using Discovery Quant Analyze. The results (logMA and binding constant to HSA Kd) were calculated using an Excel workbook provided by Sovicell.
# [7] = human plasma, read-out: fu [%] (human)
# [8] = mouse plasma, read-out: fu [%] (mouse)
# Chain of human serum albumin (HSA) (P02768 25-609): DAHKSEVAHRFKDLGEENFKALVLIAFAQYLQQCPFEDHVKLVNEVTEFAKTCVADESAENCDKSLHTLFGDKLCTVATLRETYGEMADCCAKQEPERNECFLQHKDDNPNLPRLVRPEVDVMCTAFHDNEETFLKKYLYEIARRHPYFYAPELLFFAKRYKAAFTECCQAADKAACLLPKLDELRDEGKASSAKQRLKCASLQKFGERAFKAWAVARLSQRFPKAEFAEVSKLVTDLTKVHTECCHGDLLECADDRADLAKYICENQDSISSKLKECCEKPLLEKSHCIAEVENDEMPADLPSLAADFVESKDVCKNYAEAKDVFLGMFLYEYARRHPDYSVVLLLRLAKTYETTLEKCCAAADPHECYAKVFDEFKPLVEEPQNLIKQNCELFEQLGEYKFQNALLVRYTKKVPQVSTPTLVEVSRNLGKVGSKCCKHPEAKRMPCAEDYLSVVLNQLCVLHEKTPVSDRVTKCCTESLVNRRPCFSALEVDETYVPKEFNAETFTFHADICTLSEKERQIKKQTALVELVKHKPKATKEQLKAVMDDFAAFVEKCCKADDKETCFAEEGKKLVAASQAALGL
structure (smiles),measurement,setting,value
"c1ccc(-c2cccc(-c3ccccc3)n2)cc1 [2,6-diphenylpyridine]",log P,[1],4.9
Clc1ccc(C(c2ccc(Cl)cc2)C(Cl)(Cl)Cl)cc1 [DDT],log P,[1],6.2
"Cc1ccc(-c2ccc(Cl)cc2)cc1C1=C(O)[C@]2(CC[C@H](C(F)(F)F)CC2)NC1=O [V.1-b, (5s,8s)-3-(4′-Chloro-4-methylbiphenyl-3-yl)-4-hydroxy-8-(trifluoromethyl)-1-azaspiro[4.5]dec-3-en-2-one]",logMA,[2],2.38
same,Selectivity ACC1 vs. ACC2 (mean of the individual measurements ± standard deviation),human ACC1 [3],9.8 ± 1.4
same,Ratio IC50s ACC2/ACC1 (respective measurement),human ACC1 [3],11.2 and 8.4
same,IC50,human ACC1 [4],109 nM and 111 nM
same,fraction unbound,[5]; [7],0.0007
same,fraction unbound,[5]; [8],0.0241
same,Kd,[6],3070 nM
"Cc1ccc(-c2ccc(Cl)c(F)c2)cc1C1=C(O)[C@]2(CC[C@H](C(F)(F)F)CC2)NC1=O [V.2-b, (5s,8s)-3-(4′-Chloro-3′-fluoro-4-methylbiphenyl-3-yl)-4-hydroxy-8-(trifluoromethyl)-1-azaspiro[4.5]dec-3-en-2-one]",logMA,[2],2.55
same,Selectivity ACC1 vs. ACC2 (mean of the individual measurements ± standard deviation),human ACC1 [3],9.4 ± 0.8
same,Ratio IC50s ACC2/ACC1 (respective measurement),human ACC1 [3],8.6 and 10.3
same,fraction unbound,[5]; [7],0.0005
same,fraction unbound,[5]; [8],0.019
COC(=O)c1ccccc1 [methyl benzoate],log P,[1],2.1
